According to US9545437B2, “Peptide vaccines for cancers expressing MPHOSPH1 or DEPDC1 polypeptides” (ONCOTHERAPY SCIENCE, INC., priority 2006, dated 2017):
“Also recorded” adds a separate entry of the source.

Columns and labels:
[1] = tested on: A24LCL cells (HLA-A24/24); assay: Specific CTL activity of established CTL clones (IFN-gamma ELISPOT / ELISA), A24LCL targets; assay type: cell-based, human; details: listed as DEPDC1-A24-9-294
Experimental: CTLs were expanded in culture using the method similar to that described by Riddell S R, et al., (Walter E A et al., (1995) N Engl J Med 333:1038-44.; Riddel S R, et al., (1996) Nature Med. 2:216-23.). A total 5×10^4 of CTLs were resuspended in 25 ml of AIM-V/5% AS with 2 kinds of human B-lymphoblastoid cell lines, inactivated by MMC, in the presence of 40 ng/ml of anti-CD3 monoclonal antibody (Pharmingen). One day after initiating the cultures, 120 IU/ml of IL-2 were added to the cultures. The cultures were fed with fresh AIM-V/5% AS containing 30 IU/ml of IL-2 on days 5, 8 and 11.
The dilutions were made to have 0.3, 1, and 3 CTLs/well in 96 round-bottomed micro titer plate (Nalge Nunc International). CTLs were cultured with 7×10^4 cells/well of 2 kinds of human B-lymphoblastoid cell lines, 30 ng/ml of anti-CD3 antibody, and 125 U/ml of IL-2 in total of 150 mcl/well of AIM-V containing 5% AS. 50 mcl/well of IL-2 was added to the medium 10 days later so that IL-2 became 125 U/ml in the final concentration. CTL activity of CTLs was tested on the 14th day, and CTL clones were expanded using the same method above.
To examine the specific CTL activity, IFN-gamma ELISPOT assay and IFN-gamma ELISA were performed.
Briefly, peptide-pulsed A24-LCL or T2 cell (1×10^4/well) was prepared as a stimulator cell. Cultured Cells in 48 wells or CTL clones after limiting dilution were used as a responder cells. IFN-gamma ELISPOT assay and ELISA were performed under manufacture procedure.

[2] = tested on: BALB/c mice (H-2Kd); assay: Immunogenicity of epitope peptides in BALB/c mice (splenocyte IFN-gamma ELISPOT); assay type: in vivo, mouse; details: IFA-conjugated peptide s.c. days 0 and 7, splenocytes day 14, compared with IFA alone
Experimental: For induction of the peptide-specific CTLs, immunization was given using […] of vaccine mixture, which contains 50 mcl (100 mcg) of HLA-A24 restricted peptide and 50 mcl of IFA per mouse. The vaccine was subcutaneously injected in the right flank for the first immunization on day 0 and in the left flank for the second on the day 7. On day 14, splenocytes of the vaccinated mice, without any in vitro stimulation, were used responder cells, and RLmale1 cells pulsed with or without peptides were used as the stimulator cells for IFN-gamma ELISPOT assay.

## EYYELFVNI [SEQ ID NO: 12]
[1]; A24LCL pulsed with no peptides
  CTL activity against targets not pulsed with any peptide: without showing any significant specific CTL activity; also recorded: did not show significant CTL activity
[1]; A24LCL pulsed with the peptide
  specific CTL activity of CTLs/CTL clones against the peptide-pulsed target: higher specific CTL activities; also recorded: potent specific CTL activity; also recorded: high specific CTL activity; also recorded: potent cytotoxic activity
[2]
  IFN-gamma production of splenocytes of vaccinated mice (ELISPOT): potent IFN-gamma production
